From ChEMBL document CHEMBL1240304, “Host sphingolipid biosynthesis as a target for hepatitis C virus therapy” (Nat Chem Biol, 2005)
Calls of active or inactive are those of the source. The rule behind the calls is not given here.

Experiments:
[1] = Cytotoxicity against human Huh-7/3-1 cells assessed as reduction in cell viability; assay type: cell-based
Hepatitis C virus [2] = test: Antiviral activity against Hepatitis C virus (isolate Con1) genotype 1b in human Huh-7/3-1 cells assessed as inhibition of HCV replication; assay type: functional, organism-based, Hepacivirus hominis; settings: isolate Con1, Huh-7
[3] = Cytotoxicity against human Huh-7/3-1 cells assessed as cell viability at 0.1 to 11 uM after 72 hrs by WST-8 assay; assay type: cell-based
Hepatitis C virus [4] = test: Binding affinity at HCV NS5B at 1 nmol by ELISA; settings: Hepacivirus hominis; Con1
Hepatitis C virus [5] = test: Antiviral activity against Hepatitis C virus (isolate Con1) genotype 1b in human Huh-7/3-1 cells assessed as reduction in NS5B protein level in golgi-derived detergent-resistant membrane at 1 uM after 72 hrs by immunoblotting analysis; assay type: functional, organism-based; settings: Hepacivirus hominis
Hepatitis C virus [6] = test: Antiviral activity against Hepatitis C virus (isolate Con1) genotype 1b in human Huh-7/3-1 cells assessed as reduction in NS5B protein level at 100 nM by Western blot analysis; assay type: functional, organism-based; settings: Hepacivirus hominis, TDE = time-dependent effect
[7] = Cytotoxicity against human Huh-7/3-1 cells assessed as cell viability at 0.1 to 100 uM after 72 hrs by WST-8 assay; assay type: cell-based
Hepatitis C virus [8] = test: Antiviral activity against Hepatitis C virus (isolate Con1) genotype 1b in human Huh-7/3-1 cells assessed as reduction in NS5A protein level at 100 nM by Western blot analysis; assay type: functional, organism-based; settings: Hepacivirus hominis, TDE = time-dependent effect
Homo sapiens = species: Homo sapiens; test: Effect on Caveolin-2 localization in human Huh-7/3-1 replicon golgi-derived detergent-resistant membrane at 1 uM after 72 hrs by immunoblotting analysis; assay type: functional
Hepatitis C virus [9] = test: microbe, parasite or virus in culture; settings: isolate Con1, Huh-7, 72 h
Description: Antiviral activity against Hepatitis C virus (isolate Con1) genotype 1b in human Huh-7/3-1 cells assessed as inhibition of HCV replication after 72 hrs by luciferase assay

[10] = biological target: T1, Serine palmitoyltransferase 1 (Homo sapiens, UniProt O15269); test: Inhibition of human recombinant SPT1 activity in LCB1 transfected human HEK293 cells; assay type: cell-based
T1 sequence (O15269 whole entry): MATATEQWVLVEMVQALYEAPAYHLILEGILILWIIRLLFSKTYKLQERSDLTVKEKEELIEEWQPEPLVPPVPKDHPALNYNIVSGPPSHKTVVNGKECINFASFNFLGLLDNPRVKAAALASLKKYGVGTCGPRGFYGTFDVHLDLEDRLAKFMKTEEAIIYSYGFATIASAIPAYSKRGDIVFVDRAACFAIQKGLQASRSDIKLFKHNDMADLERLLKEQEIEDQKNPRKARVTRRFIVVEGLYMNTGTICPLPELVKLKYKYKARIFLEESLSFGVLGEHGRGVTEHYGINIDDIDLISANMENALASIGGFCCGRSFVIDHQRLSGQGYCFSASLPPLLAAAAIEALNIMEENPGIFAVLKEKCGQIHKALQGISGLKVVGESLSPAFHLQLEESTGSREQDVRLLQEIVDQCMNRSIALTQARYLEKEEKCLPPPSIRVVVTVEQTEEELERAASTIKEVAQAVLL

Hepatitis C virus [11] = test: Antiviral activity against Hepatitis C virus (isolate Con1) genotype 1b in human Huh-7/3-1 cells assessed as reduction in NS5A protein level in golgi-derived detergent-resistant membrane at 1 uM after 72 hrs by immunoblotting analysis; assay type: functional, organism-based; settings: Hepacivirus hominis
Hepatitis C virus [12] = test: Relocation of NS5B in human Huh-7/3-1 Hepatitis C virus (isolate Con1) genotype 1b replicon cells using golgi-derived detergent-resistant membrane at 10 nM after 72 hrs by immunoblotting analysis; assay type: functional, organism-based; settings: Hepacivirus hominis
Hepatitis C virus [13] = test: Antiviral activity against Hepatitis C virus (isolate Con1) genotype 1b in human Huh-7/3-1 cells assessed as inhibition of HCV replication at 0.1 to 100 nM after 72 hrs by luciferase assay; assay type: functional, organism-based; settings: Hepacivirus hominis
Hepatitis C virus [14] = test: Antiviral activity against Hepatitis C virus (isolate Con1) genotype 1b in human Huh-7/3-1 cells assessed as disappearance of NS3 protein from perinuclear region at 100 nM after 96 hrs by immunostaining; assay type: functional, organism-based; settings: Hepacivirus hominis
Hepatitis C virus [15] = test: microbe, parasite or virus in culture; settings: isolate Con1, Huh-7
Description: Antiviral activity against Hepatitis C virus (isolate Con1) genotype 1b in human Huh-7/3-1 cells assessed as inhibition of SPT activity in presence of 1 uM sphinganine

Hepatitis C virus [16] = test: Antiviral activity against Hepatitis C virus (isolate Con1) genotype 1b in human Huh-7/3-1 cells assessed as reduction in NS3 protein level at 1 uM by Western blot analysis in presence of 1 uM C2-ceramide; assay type: functional, organism-based; settings: Hepacivirus hominis
Hepatitis C virus [17] = test: Antiviral activity against Hepatitis C virus (isolate Con1) genotype 1b in human Huh-7/3-1 cells assessed as reduction in NS3 protein level at 1 uM by Western blot analysis in presence of 5 uM C2-ceramide; assay type: functional, organism-based; settings: Hepacivirus hominis
Hepatitis C virus [18] = test: Antiviral activity against Hepatitis C virus (isolate Con1) genotype 1b in human Huh-7/3-1 cells assessed as reduction in NS3 protein level in golgi-derived detergent-resistant membrane at 1 uM after 72 hrs by immunoblotting analysis; assay type: functional, organism-based; settings: Hepacivirus hominis
Hepatitis C virus [19] = test: Antiviral activity against Hepatitis C virus (isolate Con1) genotype 1b in human Huh-7/3-1 cells assessed as reduction in NS3 protein level at 100 nM by Western blot analysis; assay type: functional, organism-based; settings: Hepacivirus hominis, TDE = time-dependent effect
Hepatitis C virus [20] = test: microbe, parasite or virus in culture; settings: isolate Con1, Huh-7; remark: listed apart in the source
Description: Antiviral activity against Hepatitis C virus (isolate Con1) genotype 1b in human Huh-7/3-1 cells assessed as inhibition of SPT activity in presence of 3 uM sphinganine

[21] = Cytotoxicity against human Huh-7/3-1 cells assessed as cell viability at 0.1 to 100 uM after 72 hrs by Trypan Blue exclusion test; assay type: cell-based
Hepatitis C virus [22] = test: Antiviral activity against Hepatitis C virus (isolate Con1) genotype 1b in human Huh-7/3-1 cells assessed as decrease in replicon RNA at 0.01 to 1 uM after 72 hrs by Northern blot analysis; assay type: functional, organism-based; settings: Hepacivirus hominis
[23] = Cytotoxicity against human Huh-7/3-1 cells assessed as cell cycle progression at 0.02 to 50 uM after 72 hrs by flow-cytometry; assay type: cell-based

`CCCCCCCCCCCCCCCC(=O)NC(CN1CCOCC1)C(O)c1ccccc1` (stereo not given) showed an Activity [1] of 5.3 µM and an IC50 (Hepatitis C virus [2]) of 1200 nM.

For `CCCCCCCCCCCC(=O)N[C@@H](CO)C[C@@H](O)c1ccccc1`, the Activity [3] was “Non-toxic”.

For `CCCCCCCCCCCCCC/C=C/[C@@H](O)[C@H](CO[C@@H]1O[C@H](CO)[C@H](O)[C@H](O)[C@H]1O)NC(=O)CCCCCCCCCCCCCCCCC`, the Activity (Hepatitis C virus [4]) was “Active”.

For `CCCCCCC(=O)CCCCCC/C=C/C[C@@H](O)[C@H](O)[C@@](N)(CO)C(=O)O`, the Activity (Hepatitis C virus [5]) was “Active”.

For `CCCCCCCC(=O)CCCCCC/C=C/[C@H](C(=O)N[C@@H](Cc1ccc(OCC=C(C)C)cc1)C(=O)O)[C@@](O)(CC(=O)O)C(=O)O`, the Activity (Hepatitis C virus [5]) was “Active”, the Activity (Hepatitis C virus [6]) was “tde” and the Activity [7] was > 50 µM. For the same compound, the Activity (Hepatitis C virus [8]) was “tde”, the Activity (Homo sapiens) was “inactive” and the IC50 (Hepatitis C virus [9]) was 2 nM. For the same compound, the IC50 [10] was 10 nM, the Activity (Hepatitis C virus [11]) was “inactive” and the Activity (Hepatitis C virus [12]) was “inactive”. For the same compound, the Activity (Hepatitis C virus [13]) was “Dose-dependent effect”, the Activity (Hepatitis C virus [14]) was “Active” and the IC50 (Hepatitis C virus [15]) was 33 nM. For the same compound, the Activity (Hepatitis C virus [16]) was “inactive”, the Activity (Hepatitis C virus [17]) was “inactive” and the Activity (Hepatitis C virus [18]) was “inactive”. The Activity (Hepatitis C virus [19]) was “tde”, the IC50 (Hepatitis C virus [20]) was > 1000 nM and the Activity [21] was “Non-toxic”. The Activity (Hepatitis C virus [22]) was “Active” and the Activity [23] was “Non-toxic”.
